The experiment has as its target T1, AcHACL (Actinomycetospora chiangmaiensis, UniProt P0DUV9).
T1 construct: recombinant from E. coli Lemo21(DE3), vector pASG-IBA43, N-terminal His-tag and C-terminal Strep-tag; tag removal not mentioned; homotetramer (dimer of dimers); C-terminal lid residues 556-590
T1 sequence (P0DUV9 1-590): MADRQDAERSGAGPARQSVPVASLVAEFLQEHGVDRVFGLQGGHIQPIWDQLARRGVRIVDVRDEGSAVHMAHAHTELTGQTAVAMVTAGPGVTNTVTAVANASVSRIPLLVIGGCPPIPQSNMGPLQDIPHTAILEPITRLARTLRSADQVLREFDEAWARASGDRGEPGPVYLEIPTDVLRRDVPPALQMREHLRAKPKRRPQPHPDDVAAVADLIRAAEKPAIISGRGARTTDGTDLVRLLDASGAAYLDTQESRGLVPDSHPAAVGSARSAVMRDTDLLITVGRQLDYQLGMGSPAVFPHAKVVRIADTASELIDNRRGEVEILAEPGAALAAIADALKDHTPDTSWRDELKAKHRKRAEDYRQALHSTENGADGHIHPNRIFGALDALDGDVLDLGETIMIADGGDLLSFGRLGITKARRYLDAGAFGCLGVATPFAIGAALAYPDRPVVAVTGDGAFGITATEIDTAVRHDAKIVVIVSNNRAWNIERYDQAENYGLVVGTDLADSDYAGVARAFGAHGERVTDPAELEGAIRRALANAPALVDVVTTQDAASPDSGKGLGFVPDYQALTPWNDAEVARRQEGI
The experiment in a line: X-ray crystal structure, […] Å. The format is binding.

The record followed here is article PMC8760513, “Mechanistic details of the actinobacterial lyase-catalyzed degradation reaction of 2-hydroxyisobutyryl-CoA” (The Journal of Biological Chemistry, 2021).

In the case of `CC(C)=O` [acetone], under “product-bound dimer, additional density near ThDP interpreted as acetone, hydrogen bond to E493”, the “X-ray crystal structure, 1.64 Å” value was “additional electron density close to the ThDP cofactor was interpreted as an acetone molecule”.
On to `CC(C)(COP(=O)(O)OP(=O)(O)OC[C@H]1O[C@@H](n2cnc3c(N)ncnc32)[C@H](O)[C@@H]1OP(=O)(O)O)[C@@H](O)C(=O)NCCC(=O)NCCSC=O` [formyl-CoA], for which, where the note is “product-bound dimer formed from 2-HIB-CoA in the crystal, density not well defined beyond the pantoyl moiety”, the “X-ray crystal structure, 1.64 Å” value is “the products formyl-CoA and acetone are bound to the other dimer”.
